Reference: patent publication US20240279233A1, “MACROCYCLIC TAK1 INHIBITORS” (Aqilion AB, priority 2021, published 2024)
Read-outs that look alike come from different tables or passages of the source.

Molecular target: human recombinant TAK1-TAB1 Kinase (TAK1 (1-303) and TAB1 (437-end)) (Homo sapiens (Human), UniProt O43318)
Test: TAK1 biochemical ADP-Glo kinase assay
Conditions: MBP substrate
Experimental: The usefulness of the example compounds of the invention as TAK1 inhibitors was evaluated in a biochemical ADP-Glo kinase assay. Assay kits from Promega Corporation V4089 were used according to manufacturer's instructions and adapted as outlined here. ADP-Glo Kinase Assay kit contains ADP-Glo Reagent, Kinase Detection Reagent, kinase detection buffer, ATP, and ADP. The Kinase Enzyme Systems include human recombinant TAK1-TAB1 Kinase (TAK1 (1-303) and TAB1 (437-end)), Native Swine Myelin Basic Protein (MBP) substrate, 5×kinase reaction buffer, and DTT.
Test compounds were prepared in 1:5 serial dilutions at 8 concentrations in DMSO from 10 mM stock solutions. An additional 20-fold dilution in 1× kinase reaction buffer (see below) was performed, yielding a final dilution series in kinase buffer with 5% DMSO (final concentration in assay from 20 μM to 0.26 nM, 1% DMSO). As controls, Takinib was prepared as positive control (3 μM final in assay), and DMSO without inhibitor served as negative control, at a final assay concentration of DMSO of 1%.
One μl of compound solution in 5% DMSO was added to each well in a 384 well microtiter plate (OptiPlate #6007290). Two μl TAK1-TAB1 (7.5 ng/μl) in lxkinase reaction buffer ([…] Tris base pH 7.5, 20 mM MgCl2, 50 μM DTT, 0.1 mg/ml BSA) was added and pre-incubated 10 min before adding 2 μl of a mixture of MBP substrate and ATP (0.25 μg/μL MBP/25 μM ATP or 0.25 μg/μL MBP/2.5 mM ATP) in 1× kinase reaction buffer (as above). The plate was subsequently incubated at room temperature for 1 hour. Then 5 μl ADP-Glo™ reagent from ADP-Glo™ kit (as above) was added and incubated for 40 min to stop the reaction and consume remaining ATP. Ten μl kinase detection substrate (dissolved in kinase detection buffer, both from ADP-Glo™ kit as above) was then added to convert ADP to ATP and detect ATP with luciferase/luciferin. The plate was incubated for 30 minutes at room temperature in dark before reading luminescence on an Envision (PerkinElmer) reader.
IC50 values of compounds of the invention were determined by the non-linear regression analysis of dose response curves.

[1] = 1 mM ATP, read-out: TAK1 Mean IC50 (nM) @ 1 mM ATP
[2] = 10 μM ATP, read-out: TAK1 Mean IC50 (nM) @ 10 μM ATP

Sequence of human recombinant TAK1-TAB1 Kinase (TAK1 (1-303) and TAB1 (437-end)) (O43318 other isoform, or with tags, fused parts or gaps): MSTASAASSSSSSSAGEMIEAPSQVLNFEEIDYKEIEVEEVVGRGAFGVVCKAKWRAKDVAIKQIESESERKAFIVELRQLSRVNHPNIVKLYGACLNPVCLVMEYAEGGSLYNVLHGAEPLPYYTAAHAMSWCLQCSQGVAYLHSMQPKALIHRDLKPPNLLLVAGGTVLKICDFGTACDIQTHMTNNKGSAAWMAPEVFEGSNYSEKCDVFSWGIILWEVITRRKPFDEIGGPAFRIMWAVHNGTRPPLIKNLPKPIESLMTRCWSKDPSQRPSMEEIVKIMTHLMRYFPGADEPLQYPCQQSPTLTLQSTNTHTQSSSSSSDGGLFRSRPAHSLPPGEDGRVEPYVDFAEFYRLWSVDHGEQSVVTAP

| Structure (SMILES) | IC50 [1] | IC50 [2] |
| --- | --- | --- |
| CC1CCCCNC(=O)c2nc(cs2)C(=O)/N=C2\Nc3cccc(C(=O)N(C)C)c3N21 (single isomer, unassigned) [Example 108, (1^2Z,4^2E)-N,N,5-trimethyl-2,11-dioxo-4^2,4^3-dihydro-4^1H-3,10-diaza-1(4,2)-thiazola-4(2,1)-benzo[d]imidazolacycloundecaphane-4^7-carboxamide] | 23 nM | – |
| CC1CCCCNC(=O)c2nc(cs2)C(=O)/N=C2\Nc3cccc(C(=O)N(C)C)c3N21 (single isomer, unassigned) [Example 109, (1^2Z,4^2E)-N,N,5-trimethyl-2,11-dioxo-4^2,4^3-dihydro-4^1H-3,10-diaza-1(4,2)-thiazola-4(2,1)-benzo[d]imidazolacycloundecaphane-4^7-carboxamide] | 114 nM | – |
| C[C@H]1CCCCNC(=O)c2cccc(c2)C(=O)/N=C2\Nc3cccc(C(=O)N4CCC5(CCO5)C4)c3N21 (single isomer, unassigned) [Example 120] | 14 nM | 5 nM |
| C[C@H]1CCCCNC(=O)c2cccc(c2)C(=O)/N=C2\Nc3cccc(C(=O)N4CCC5(CCO5)C4)c3N21 (single isomer, unassigned) [Example 121] | 19 nM | 5 nM |
| C[C@H]1CCCCNC(=O)c2cccc(c2)C(=O)/N=C2\Nc3ccnc(N4CCC(F)C4=O)c3N21 (single isomer, unassigned) [Example 126] | 12 nM | 4 nM |
| C[C@H]1CCCCNC(=O)c2cccc(c2)C(=O)/N=C2\Nc3ccnc(N4CCC(F)C4=O)c3N21 (single isomer, unassigned) [Example 127] | 18 nM | 5 nM |
| Cc1nnc(-c2cccc3c2N2/C(=N/C(=O)c4cccc(c4)C(=O)NCCCCC2C)N3)o1 (single isomer, unassigned) [Example 132, (E)-11-methyl-1^7-(5-methyl-1,3,4-oxadiazol-2-yl)-1^2,1^3-dihydro-1^1H-2,6-diaza-1(2,1)-benzo[d]imidazola-4(1,3)-benzenacycloundecaphane-3,5-dione] | 10 nM | 10 nM |
| Cc1nnc(-c2cccc3c2N2/C(=N/C(=O)c4cccc(c4)C(=O)NCCCCC2C)N3)o1 (single isomer, unassigned) [Example 133, (E)-11-methyl-1^7-(5-methyl-1,3,4-oxadiazol-2-yl)-1^2,1^3-dihydro-1^1H-2,6-diaza-1(2,1)-benzo[d]imidazola-4(1,3)-benzenacycloundecaphane-3,5-dione] | 12 nM | 10 nM |
| CC1CCCCNC(=O)c2cccc(c2)C(=O)/N=C2\Nc3cccc(-c4nccn4C)c3N21 (single isomer, unassigned) [Example 135, (E)-11-methyl-1^7-(1-methyl-1H-imidazol-2-yl)-1^2,1^3-dihydro-1^1H-2,6-diaza-1(2,1)-benzo[d]imidazola-4(1,3)-benzenacycloundecaphane-3,5-dione] | – | 6 nM |
| CNC(=O)c1cccc2nc3n(c12)C(C)CCCCNC(=O)c1cccc(c1)C(=O)N3 (stereo not drawn) [Example 34, (E)-N,11-dimethyl-3,5-dioxo-1^2,1^3-dihydro-1^1H-2,6-diaza-1(2,1)-benzo[d]imidazola-4(1,3)-benzenacycloundecaphane-1^7-carboxamide] | – | 2 nM |
| CC1CCCCNC(=O)c2cccc(c2)C(=O)/N=C2\Nc3cccc(C(=O)N4CCC(F)(F)C4)c3N21 (stereo not drawn) [Example 37, (E)-1^7-(3,3-difluoropyrrolidine-1-carbonyl)-11-methyl-1^2,1^3-dihydro-1^1H-2,6-diaza-1(2,1)-benzo[d]imidazola-4(1,3)-benzenacycloundecaphane-3,5-dione] | – | 5 nM |
| COC(=O)CN(C)C(=O)c1cccc2c1N1/C(=N/C(=O)c3cccc(c3)C(=O)NCCCCC1C)N2 (stereo not drawn) [Example 38, methyl (E)-N-methyl-N-(11-methyl-3,5-dioxo-1^2,1^3-dihydro-1^1H-2,6-diaza-1(2,1)-benzo[d]imidazola-4(1,3)-benzenacycloundecaphane-1^7-carbonyl)glycinate] | – | 4 nM |
| CC1CCCCNC(=O)c2cccc(c2)C(=O)/N=C2\Nc3cccc(C(=O)N(C)C4CCC4)c3N21 (stereo not drawn) [Example 39, (E)-N-cyclobutyl-N,11-dimethyl-3,5-dioxo-1^2,1^3-dihydro-1^1H-2,6-diaza-1(2,1)-benzo[d]imidazola-4(1,3)-benzenacycloundecaphane-1^7-carboxamide] | – | 6 nM |
| CC1CCCCNC(=O)c2cccc(c2)C(=O)/N=C2\Nc3cccc(C(=O)N4CC(F)(F)C4)c3N21 (stereo not drawn) [Example 40, (E)-1^7-(3,3-difluoroazetidine-1-carbonyl)-11-methyl-1^2,1^3-dihydro-1^1H-2,6-diaza-1(2,1)-benzo[d]imidazola-4(1,3)-benzenacycloundecaphane-3,5-dione] | – | 3 nM |
| CC1CCCCNC(=O)c2cccc(c2)C(=O)/N=C2\Nc3cccc(C(=O)N(C)C4CC(O)C4)c3N21 (stereo not drawn) [Example 41, (E)-N-(3-hydroxycyclobutyl)-N,11-dimethyl-3,5-dioxo-1^2,1^3-dihydro-1^1H-2,6-diaza-1(2,1)-benzo[d]imidazola-4(1,3)-benzenacycloundecaphane-1^7-carboxamide] | – | 3 nM |

Second part, the molecule after the results:

| IC50 [1] | IC50 [2] | Structure (SMILES) |
| --- | --- | --- |
| – | 9 nM | CC1CCCCNC(=O)c2cccc(c2)C(=O)/N=C2\Nc3cccc(-c4ncn(C(F)F)n4)c3N21 (single isomer, unassigned) [Example 137, (E)-1^7-(1-(difluoromethyl)-1H-1,2,4-triazol-3-yl)-11-methyl-1^2,1^3-dihydro-1^1H-2,6-diaza-1(2,1)-benzo[d]imidazola-4(1,3)-benzenacycloundecaphane-3,5-dione] |
| – | 8 nM | CC1CCCCNC(=O)c2cccc(c2)C(=O)/N=C2\Nc3cccc(-c4ncn(C(F)F)n4)c3N21 (single isomer, unassigned) [Example 138, (E)-1^7-(1-(difluoromethyl)-1H-1,2,4-triazol-3-yl)-11-methyl-1^2,1^3-dihydro-1^1H-2,6-diaza-1(2,1)-benzo[d]imidazola-4(1,3)-benzenacycloundecaphane-3,5-dione] |
| 17 nM | – | CC1CCCCNC(=O)c2cccc(c2)C(=O)/N=C2\Nc3cccc(-c4ncnn4C(F)F)c3N21 (single isomer, unassigned) [Example 139, (E)-1^7-(1-(difluoromethyl)-1H-1,2,4-triazol-5-yl)-11-methyl-1^2,1^3-dihydro-1^1H-2,6-diaza-1(2,1)-benzo[d]imidazola-4(1,3)-benzenacycloundecaphane-3,5-dione] |
| 6 nM | – | CC1CCCCNC(=O)c2cccc(c2)C(=O)/N=C2\Nc3cccc(-c4ncnn4C(F)F)c3N21 (single isomer, unassigned) [Example 140, (E)-1^7-(1-(difluoromethyl)-1H-1,2,4-triazol-5-yl)-11-methyl-1^2,1^3-dihydro-1^1H-2,6-diaza-1(2,1)-benzo[d]imidazola-4(1,3)-benzenacycloundecaphane-3,5-dione] |
| 15 nM | – | CC1CCCCNC(=O)c2cccc(c2)C(=O)/N=C2\Nc3cccc(N4CCN(C5CC5)C4=O)c3N21 (single isomer, unassigned) [Example 141, (E)-1^7-(3-cyclopropyl-2-oxoimidazolidin-1-yl)-11-methyl-1^2,1^3-dihydro-1H-2,6-diaza-1(2,1)-benzo[d]imidazola-4(1,3)-benzenacycloundecaphane-3,5-dione] |
| 8 nM | 7 nM | CC1CCCCNC(=O)c2cccc(c2)C(=O)/N=C2\Nc3cccc(N4CCN(C5CC5)C4=O)c3N21 (single isomer, unassigned) [Example 142, (E)-1^7-(3-cyclopropyl-2-oxoimidazolidin-1-yl)-11-methyl-1^2,1^3-dihydro-1H-2,6-diaza-1(2,1)-benzo[d]imidazola-4(1,3)-benzenacycloundecaphane-3,5-dione] |
| 14 nM | – | CC1CCCCNC(=O)c2cccc(c2)C(=O)/N=C2\Nc3cccc(N4CCN(C5COC5)C4=O)c3N21 (single isomer, unassigned) [Example 143, (E)-11-methyl-1^7-(3-(oxetan-3-yl)-2-oxoimidazolidin-1-yl)-1^2,1^3-dihydro-1^1H-2,6-diaza-1(2,1)-benzo[d]imidazola-4(1,3)-benzenacycloundecaphane-3,5-dione] |
| 10 nM | – | CC1CCCCNC(=O)c2cccc(c2)C(=O)/N=C2\Nc3cccc(N4CCN(C5COC5)C4=O)c3N21 (single isomer, unassigned) [Example 144, (E)-11-methyl-1^7-(3-(oxetan-3-yl)-2-oxoimidazolidin-1-yl)-1^2,1^3-dihydro-1^1H-2,6-diaza-1(2,1)-benzo[d]imidazola-4(1,3)-benzenacycloundecaphane-3,5-dione] |
